Source: ChEMBL document CHEMBL1201862, “PubChem BioAssay data set” (2004)
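These data come from cells grown in 96-well plates and exposed to compound for 48 hours at five concentrations. At the GI50, growth is halved.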 Activity calls are given as the source filed them. No stated cut-off is given here; in the data, active = GI50 up to about 1.1 µM and inactive = higher.

Assays:
Assay in all cases: NCI anticancer screen, dose series, 48 h
BT-549 = system: BT-549
DMS-114 = system: DMS-114
DLD-1 = system: DLD-1
DMS-273 = system: DMS-273
XF498 = system: XF498
SNB-78 = system: SNB-78
HOP-18 = system: HOP-18
KM-20L2 = system: KM-20L2

C[C@]12CC(c3ccccc3O1)C(C(=O)NC13CC4CC(CC(C4)C1)C3)C(=O)N2 (some centres not stated)
GI50 (BT-549): 28.1 µM (inactive)

CCOC(=O)CCC(=O)C1c2cccc(O)c2C(=O)c2c(O)cccc21
GI50 (DMS-114): 0.387 µM (active)
GI50 (DLD-1): 1.69 µM (inactive)
GI50 (DMS-273): 1.28 µM (inactive)
GI50 (XF498): 0.236 µM (active)
GI50 (SNB-78): 2.04 µM (inactive)
GI50 (HOP-18): 1.77 µM (inactive)

N=c1oc2cc(O)ccc2cc1C(=O)Nc1cccc2ccccc12
GI50 (BT-549): 2.43 µM (inactive)

CC(C)NC(=O)CN1CCN(C2=CC(=O)c3c(O)ccc(O)c3C2=O)CC1
GI50 (BT-549): 17.7 µM (inactive)

O=C1CC2=CCCC2O1 (configuration not stated)
GI50 (DMS-114): > 100 µM (inactive)
GI50 (DLD-1): > 100 µM (inactive)
GI50 (DMS-273): > 100 µM (inactive)
GI50 (XF498): > 100 µM (inactive)
GI50 (SNB-78): > 100 µM (inactive)

COc1ccc2nc3cc(Cl)ccc3c(Nc3ccc(O)c(CN4CCN(C)CC4)c3)c2c1
GI50 (BT-549): 20.3 µM (inactive)

Nc1ncc2c(n1)-c1ccccc1OC2N1CCCCC1 (configuration not stated)
GI50 (BT-549): > 100 µM (inactive)

COc1ccc(-c2cn3c(nc4ccccc43)c(/C=C/c3cccs3)n2)cc1
GI50 (BT-549): 63 µM (inactive)

O=[N+]([O-])C(=C(N1CCOCC1)N1CCOCC1)/C(Cl)=C(\Cl)Br
GI50 (BT-549): 13.3 µM (inactive)

COC(=O)C1=NN2c3ccccc3C(=O)OCCC2C1 (configuration not stated)
GI50 (BT-549): > 100 µM (inactive)

c1ccc(/N=C2/SC(c3ccccc3)(c3ccccc3)c3ccccc32)cc1
GI50 (BT-549): > 100 µM (inactive)

COC(=O)C(=O)C(C(=O)C(=O)Nc1ccc(Cl)c(Cl)c1)c1nc2ccc(C(=O)c3ccccc3)cc2nc1O (configuration not stated)
GI50 (BT-549): > 100 µM (inactive)

COc1ccc(C2CC(C)(O)Oc3cc4c(cc32)OCO4)cc1 (configuration not stated)
GI50 (BT-549): 17.3 µM (inactive)

NS(=O)(=O)c1nnc(NS(=O)(=O)c2cccc3cccnc23)s1
GI50 (BT-549): > 100 µM (inactive)

Cc1nnc(SCc2nc(C#N)c(C#N)nc2CSc2nnc(C)s2)s1
GI50 (BT-549): 16.2 µM (inactive)

O=C(/C=C/c1ccc(C(F)(F)F)cc1)c1c([O-])on[n+]1-c1ccccc1
GI50 (BT-549): 1.59 µM (inactive)

O=C1NC(=S)NC(=O)C1=Cc1ccc2ccccc2n1
GI50 (DMS-114): > 100 µM (inactive)
GI50 (DLD-1): > 100 µM (inactive)
GI50 (DMS-273): > 100 µM (inactive)
GI50 (SNB-78): > 100 µM (inactive)
GI50 (HOP-18): > 100 µM (inactive)
GI50 (KM-20L2): > 100 µM (inactive)

CCCCCCCCCCC/C=C(/C(=O)CCCO[Si](C)(C)C(C)(C)C)C(=O)OC
GI50 (BT-549): > 100 µM (inactive)

S=c1nc(N2CCCCC2)c2cn[nH]c2[nH]1
GI50 (BT-549): 26.1 µM (inactive)

CCN(CC)CCN(C)CCc1ccc(Br)cc1
GI50 (BT-549): 42.5 µM (inactive)

CCOC(=O)c1c2ccccc2n2c(=O)n(-c3ccc(OC)cc3)nnc12
GI50 (BT-549): 26.5 µM (inactive)

CCSc1nnc(-c2ccccc2)nc1Cc1ccc(OC)cc1
GI50 (DLD-1): > 100 µM (inactive)
GI50 (DMS-273): 71.9 µM (inactive)
GI50 (XF498): 62.7 µM (inactive)
GI50 (SNB-78): 78 µM (inactive)
GI50 (HOP-18): > 100 µM (inactive)
GI50 (KM-20L2): > 100 µM (inactive)

O=C(OCc1ccccc1)C1(N2CN(C3(C(=O)OCc4ccccc4)CCCC3)CN(C3(C(=O)OCc4ccccc4)CCCC3)C2)CCCC1
GI50 (BT-549): > 10 µM (inactive)

NC1=NS(=O)(=O)N=C(N)C1=Cc1ccc([N+](=O)[O-])o1
GI50 (DMS-114): 17.7 µM (inactive)
GI50 (DLD-1): 17.1 µM (inactive)
GI50 (DMS-273): 16.7 µM (inactive)
GI50 (XF498): 18.7 µM (inactive)
GI50 (SNB-78): 19.6 µM (inactive)
GI50 (HOP-18): 18 µM (inactive)
GI50 (KM-20L2): 16.6 µM (inactive)

O=C1NC(Nc2ccccc2Cl)=N/C1=C\c1c(Cl)cccc1Cl
GI50 (BT-549): 34.1 µM (inactive)

O=c1[nH]c(S)nc2c1sc(=S)n2-c1ccccc1
GI50 (DMS-114): > 100 µM (inactive)
GI50 (DLD-1): > 100 µM (inactive)
GI50 (DMS-273): > 100 µM (inactive)
GI50 (XF498): > 100 µM (inactive)
GI50 (SNB-78): > 100 µM (inactive)
GI50 (HOP-18): > 100 µM (inactive)
GI50 (KM-20L2): > 100 µM (inactive)
